{
  "source": "patent US20240173339A1",
  "about": "“CANNABINOID FORMULATION FOR MANAGEMENT OF DEPRESSION, ANXIETY AND PTSD, AND CANNABINOID FORMULATION AS A SLEEP AID” (Zyus Life Sciences Inc., priority 2021, published 2024)",
  "key": {"CRS mice [1]": {"test_system": "CRS mice", "assay": "Elevated Plus Maze (EPM) in chronic restraint stress mouse model", "type": "in vivo, BALB/c mice", "conditions": "i.p., CBD 10 mg/kg, CBC 20 mg/kg, or both", "description": "(§1) D0-D14: Development of Depression Model by Chronic Restraint Stimulation (CRS) 1 hour per day.\n(§2) D15: Treatment of Control and CRS mice (i.p injection of Cannabinoids or Vehicle).\nD16: Elevated plus maze test (EPM) (Replicate 1).\nD17: Elevated plus maze test (EPM) (Replicate 2).\n(§3) Mouse Species. Adult male BALB/c mice were purchased from Charles River Laboratories.\n(§4) Distress Model. Adult male BALB/c mice weighing 20-30 g were used for these experiments. Total 160 animals=10 animals/group×8 treatment groups×2 replicates. The mice groups were as following: • 1. Stress Group: Chronic Restraint Stimulation (CRS): N=80 mice • 2. Control Group: No distress […] CRS: N=80 mice\n(§5) Group 2—Treatment with CBD (10 mg/kg)\n(§6) Group 3—Treatment with CBC (20 mg/kg)\n(§7) Group 4—Co-Treatment CBD (10 mg/kg)+CBC (20 mg/kg)\n(§8) • Forced Swim Test (FST) • Elevated Plus Maze (EPM) • Open-Field Test (OFT) • Tail Suspension Test (TST)"}, "rodents [2]": {"test_system": "rodents", "conditions": "cited from earlier work"}, "CRS mice [3]": {"test_system": "CRS mice", "assay": "Forced Swim Test (FST) in CRS mice", "type": "in vivo, BALB/c mice", "conditions": "CBC 20 mg/kg; for anti-depressive effect (reduction of immobility time and greater movement distance in FST): CBD 10 mg/kg, CBD+CBC 10 and 20 mg/kg", "description": "as §1, §2\nD19: Forced swim test (FST).\nas §3, §4, §5, §6, §7, §8"}, "rats": {"test_system": "rats", "conditions": "cited from earlier work"}, "[4]": {"conditions": "in vivo; cited from earlier work"}, "[5]": {"conditions": "cited from earlier work"}, "CB1 receptors": {"target": "CB1 receptors (Homo sapiens, UniProt P21554)", "sequence (P21554 whole entry)": "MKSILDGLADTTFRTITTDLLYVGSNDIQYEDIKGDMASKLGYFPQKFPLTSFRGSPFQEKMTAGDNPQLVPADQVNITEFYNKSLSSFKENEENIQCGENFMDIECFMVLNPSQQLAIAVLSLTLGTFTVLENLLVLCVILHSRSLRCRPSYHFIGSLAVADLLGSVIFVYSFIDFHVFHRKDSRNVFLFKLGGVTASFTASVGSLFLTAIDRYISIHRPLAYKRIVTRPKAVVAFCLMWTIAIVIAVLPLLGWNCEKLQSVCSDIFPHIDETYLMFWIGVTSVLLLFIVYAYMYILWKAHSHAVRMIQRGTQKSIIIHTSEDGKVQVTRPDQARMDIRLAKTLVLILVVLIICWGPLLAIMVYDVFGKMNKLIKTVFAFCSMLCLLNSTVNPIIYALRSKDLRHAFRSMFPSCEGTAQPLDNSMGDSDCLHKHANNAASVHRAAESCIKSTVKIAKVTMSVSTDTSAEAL", "conditions": "cited from earlier work"}, "rodents [6]": {"test_system": "rodents", "conditions": "in vivo; cited from earlier work"}, "CB2 receptors": {"target": "CB2 receptors (Homo sapiens, UniProt P34972)", "sequence (P34972 whole entry)": "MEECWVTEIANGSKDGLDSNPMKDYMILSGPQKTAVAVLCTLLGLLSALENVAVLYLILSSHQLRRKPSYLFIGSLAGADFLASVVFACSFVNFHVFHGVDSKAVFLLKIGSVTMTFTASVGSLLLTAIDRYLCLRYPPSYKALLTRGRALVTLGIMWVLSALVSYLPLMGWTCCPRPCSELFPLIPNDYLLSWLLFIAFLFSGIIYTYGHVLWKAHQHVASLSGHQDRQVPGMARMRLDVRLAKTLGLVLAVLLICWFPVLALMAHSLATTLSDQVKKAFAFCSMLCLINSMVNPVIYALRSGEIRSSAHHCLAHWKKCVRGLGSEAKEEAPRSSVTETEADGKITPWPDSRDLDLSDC", "conditions": "read-out: affinity (Ki) for CB2 receptors; cited from earlier work"}},
  "note": "Where “and” joins values, the source holds several entries; their conditions need not be identical. Equal entries are not always repeated. Where two headings read alike, the source gives them in different places.",
  "data": [
    {"smiles": "C=C(C)[C@@H]1CCC(C)=C[C@H]1c1c(O)cc(CCCCC)cc1O", "note": "[CBD, cannabidiol, reference compound]", "values": [
      {"measurement": "mobility in Elevated Plus Maze (EPM)", "setting": "CRS mice [1]", "result": "significantly higher mobility"},
      {"measurement": "change on TST", "setting": "rodents [2]; at any dose", "result": "did not cause a significant change"},
      {"measurement": "anti-depressive effect (reduction of immobility time and greater movement distance in FST)", "setting": "CRS mice [3]", "result": "significant anti-depressive effect"},
      {"measurement": "dose showing anti-inflammatory and immunomodulatory effects", "setting": "rats", "result": "5 to 20", "unit": "mg/kg"},
      {"measurement": "dose causing decreased locomotor activity", "setting": "[4]", "result": 200, "unit": "mg/kg"},
      {"measurement": "anti-anxiety effect", "setting": "[5]; high dose (100 mg/kg)", "result": "failed"},
      {"measurement": "anti-anxiety effect", "setting": "[5]; low dose (10 mg/kg)", "result": "effective"}
    ]},
    {"smiles": "CCCCCc1cc(O)c2c(c1)OC(C)(CCC=C(C)C)C=C2", "note": "(stereo not drawn) [CBC, cannabichromene]", "values": [
      {"measurement": "concentration at which it binds to CB1 receptors", "setting": "CB1 receptors", "result": "higher than 1 micromolar"},
      {"measurement": "mobility in Elevated Plus Maze (EPM)", "setting": "CRS mice [1]", "result": "significantly higher mobility"},
      {"measurement": "dose with significant antidepressant effect on TST", "setting": "rodents [2]; in vivo", "result": "40 mg/kg and 80 mg/kg"},
      {"measurement": "FST immobility compared to Vehicle", "setting": "CRS mice [3]; CBD+CBC 10+20 mg/kg", "result": "marked reduction of immobility"},
      {"measurement": "anti-depressive effect (reduction of immobility time and greater movement distance in FST)", "setting": "CRS mice [3]", "result": "significant anti-depressive effect"},
      {"measurement": "dose with significant antidepressant effect on FST", "setting": "rodents [6]", "result": 20, "unit": "mg/kg"},
      {"measurement": "dose causing decreased locomotor activity", "setting": "[4]", "result": "80 mg/kg and 100 mg/kg"},
      {"measurement": "Ki", "setting": "CB2 receptors", "result": "~0.1", "unit": "µM"}
    ]}
  ]
}
